Key:
[1] = test system: NCI-H1915 (Non-Small Cell Lung Carcinoma); experiment: combination Emax (second highest fraction inhibited in the dose matrix, 72 h); higher = more inhibition; extreme values may be limits of the assay
How it was run: (§1)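 After 24 hours at 37°C and 5% CO2 in 1536-well plates, cells in DMEM/F12 or RPMI plus 10% FBS received two-drug dose matrices for 72 hours. Viability came from CellTiter-Glo 2.0 luminescence and was scaled as inhibition, anchored at 0 by vehicle wells and at 1 by blank wells. Combination Emax is taken as the second-highest inhibition in the matrix, and Bliss excess as the observed combination effect less EA + EB − EA·EB, with EA and EB the single-agent effects.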

[2] = test system: TE-1 (Esophageal Squamous Cell Carcinoma); experiment: as above
How it was run: as §1

[3] = test system: OVCAR-4 (Ovarian Carcinoma); experiment: as above
How it was run: as §1

[4] = test system: SU8686 (Pancreatic Carcinoma); experiment: as above
How it was run: as §1

[5] = test system: C-4-I (Cervical Carcinoma); experiment: as above
How it was run: as §1

[6] = test system: VA-ES-BJ (Other Solid Carcinomas); experiment: as above
How it was run: as §1

[7] = test system: NEC8 (Other Solid Carcinomas); experiment: as above
How it was run: as §1

[8] = test system: HOP-62 (Lung Adenocarcinoma); experiment: as above
How it was run: as §1

[9] = test system: SCC-15 (Oral Cavity Carcinoma); experiment: as above
How it was run: as §1

[10] = test system: HGC-27 (Gastric Carcinoma); experiment: as above
How it was run: as §1

[11] = test system: OE19 (Esophageal Adenocarcinoma); experiment: as above
How it was run: as §1

PWR-1E (Non-Cancerous) [12] = experiment: as above
How it was run: as §1

[13] = test system: OSC-20 (Oral Cavity Carcinoma); experiment: as above
How it was run: as §1

[14] = test system: NUGC-3 (Gastric Carcinoma); experiment: as above
How it was run: as §1

[15] = test system: HSC-4 (Oral Cavity Carcinoma); experiment: as above
How it was run: as §1

[16] = test system: KMOE-2 (Acute Myeloid Leukemia); experiment: as above
How it was run: as §1

[17] = test system: NCI-H1915 (Non-Small Cell Lung Carcinoma); experiment: Bliss excess, mean over the matrix (fraction); higher = more synergy
How it was run: as §1

[18] = test system: TE-1 (Esophageal Squamous Cell Carcinoma); experiment: as above
How it was run: as §1

[19] = test system: OVCAR-4 (Ovarian Carcinoma); experiment: as above
How it was run: as §1

[20] = test system: SU8686 (Pancreatic Carcinoma); experiment: as above
How it was run: as §1

[21] = test system: C-4-I (Cervical Carcinoma); experiment: as above
How it was run: as §1

[22] = test system: VA-ES-BJ (Other Solid Carcinomas); experiment: as above
How it was run: as §1

[23] = test system: NEC8 (Other Solid Carcinomas); experiment: as above
How it was run: as §1

[24] = test system: HOP-62 (Lung Adenocarcinoma); experiment: as above
How it was run: as §1

[25] = test system: SCC-15 (Oral Cavity Carcinoma); experiment: as above
How it was run: as §1

[26] = test system: HGC-27 (Gastric Carcinoma); experiment: as above
How it was run: as §1

[27] = test system: OE19 (Esophageal Adenocarcinoma); experiment: as above
How it was run: as §1

PWR-1E (Non-Cancerous) [28] = experiment: as above
How it was run: as §1

[29] = test system: OSC-20 (Oral Cavity Carcinoma); experiment: as above
How it was run: as §1

[30] = test system: NUGC-3 (Gastric Carcinoma); experiment: as above
How it was run: as §1

[31] = test system: HSC-4 (Oral Cavity Carcinoma); experiment: as above
How it was run: as §1

[32] = test system: KMOE-2 (Acute Myeloid Leukemia); experiment: as above
How it was run: as §1
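Throughout, for Bliss excess, mean over the matrix: after 72 h of two-drug dosing.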

| SMILES | combination Emax [1] | combination Emax [2] | combination Emax [3] | combination Emax [4] | combination Emax [5] | combination Emax [6] | combination Emax [7] | combination Emax [8] | combination Emax [9] | combination Emax [10] | combination Emax [11] | combination Emax (PWR-1E (Non-Cancerous) [12]) | combination Emax [13] | combination Emax [14] | combination Emax [15] | combination Emax [16] | Bliss excess [17] | Bliss excess [18] | Bliss excess [19] | Bliss excess [20] | Bliss excess [21] | Bliss excess [22] | Bliss excess [23] | Bliss excess [24] | Bliss excess [25] | Bliss excess [26] | Bliss excess [27] | Bliss excess (PWR-1E (Non-Cancerous) [28]) | Bliss excess [29] | Bliss excess [30] | Bliss excess [31] | Bliss excess [32] |
| --- | --- | --- | --- | --- | --- | --- | --- | --- | --- | --- | --- | --- | --- | --- | --- | --- | --- | --- | --- | --- | --- | --- | --- | --- | --- | --- | --- | --- | --- | --- | --- | --- |
| COc1nnc2ccc(N3CCC(c4ccc(OCCN5CCN(C)C(=O)[C@H]5C)cc4)CC3)nn12 [AZD5153] + CN(CC[C@H](CSC1=CC=CC=C1)NC2=C(C=C(C=C2)S(=O)(=O)NC(=O)C3=CC=C(C=C3)N4CCC(CC4)[C@H](C5=CC=CC=C5C6=CC=C(C=C6)Cl)O)S(=O)(=O)C(F)(F)F)CCO [AZD4320] (first compound max 1 µM, 7x7, partner max 1 µM) | 0.57 | 0.485 | 0.458 | 0.0559 | 0.762 | 0.517 | 0.962 | 0.635 | 0.39 | 0.772 | 0.501 | 0.714 | 0.132 | 0.639 | 0.217 | 0.993 | 0.0678 | -0.0193 | 0.0377 | -0.0373 | 0.0692 | 0.0839 | 0.0236 | 0.011 | 0.001 | -0.0329 | 0.0208 | 0.0243 | -0.0543 | 0.0423 | -0.0287 | 0.0295 |
| CC(=O)c1c(C)c2cnc(Nc3ccc(N4CCNCC4)cn3)nc2n(C2CCCC2)c1=O [Palbociclib] + CN(CC[C@H](CSC1=CC=CC=C1)NC2=C(C=C(C=C2)S(=O)(=O)NC(=O)C3=CC=C(C=C3)N4CCC(CC4)[C@H](C5=CC=CC=C5C6=CC=C(C=C6)Cl)O)S(=O)(=O)C(F)(F)F)CCO [AZD4320] (first compound max 10 µM, 7x7, partner max 1 µM) | 0.491 | 0.439 | 0.22 | 0.0398 | 0.372 | 0.309 | 0.209 | 0.332 | 0.206 | 0.764 | 0.467 | 0.278 | 0.182 | 0.714 | 0.0868 | 0.96 | -0.0273 | -0.0322 | -0.0354 | -0.0447 | -0.0686 | -0.0288 | -0.0337 | -0.0777 | -0.0694 | 0.0123 | -0.0369 | -0.0204 | -0.0381 | -0.0659 | -0.0833 | -0.0213 |
| C[C@@H](c1ccc2nccn2c1)n1nnc2ncc(-c3cnn(C)c3)nc21 [Savolitinib] + CN(CC[C@H](CSC1=CC=CC=C1)NC2=C(C=C(C=C2)S(=O)(=O)NC(=O)C3=CC=C(C=C3)N4CCC(CC4)[C@H](C5=CC=CC=C5C6=CC=C(C=C6)Cl)O)S(=O)(=O)C(F)(F)F)CCO [AZD4320] (first compound max 1 µM, 7x7, partner max 1 µM) | 0.132 | 0.289 | 0.126 | 0.173 | 0.234 | 0.182 | 0.302 | 0.122 | 0.29 | 0.233 | 0.22 | 0.211 | 0.129 | 0.279 | 0.24 | 0.59 | -0.0519 | -0.0316 | -0.0293 | -0.0255 | -0.0399 | -0.029 | -0.0021 | -0.0729 | -0.0604 | -0.0098 | -0.0091 | -0.0221 | -0.0626 | -0.0429 | -0.0591 | -0.0537 |

— the supplement of paper PMC11061612
